Measured values as given in patent US11497813B2, “Bortezomib conjugates and methods using same” (Frank EBETINO et al., priority 2015, dated 2022).

Experiments:
[1] = test system: bone resorption and formation; assay: In vivo dose-response experiments on bone resorption and formation
From the text: In vitro testing is also used to examine analogues of BP-Btz1.

[2] = test system: Myeloma cells; assay: Myeloma cell growth in vitro (living cell count); assay type: cell-based; settings: 24 hrs, living cell numbers counted
Experimental: Myeloma cells were treated with different concentrations of testing compounds for 24 hrs. The living cell numbers were counted. *p<0.05 vs. Btz.

[3] = test system: fractured aged mice; assay: Tibial fracture healing in aged (20-m-old) mice; assay type: in vivo, mouse
Experimental: 20-m-old B6 mice had tibial fractures and were given Btz (0.6 mg/kg body weight, i.p.) or saline (Ctl) at day 1, 3, and 5 post-fracture 3 times. FIG. 8A is a graph depicting callus volumes for mice subjected to μCT at day 28. FIG. 8B is a graph depicting experimental data from mice subjected to bio-mechanical testing at day 28. FIG. 8C is a graph depicting experimental data of mice sacrificed for histological analyses at day 28. Values are the mean of 6 mice. *P<0.05 vs. saline-treated mice. FIG. 8D is a graph of data from 3-m-old (young) and 20-m-old (aged) mice after tibial fracture surgery and sacrificed at day 14 post-fracture. The % of CD45^−CD105^+Sca-1^+ cells in fracture callus were determined by flow cytometry as depicted in FIG. 7B. Values are the mean of 4 mice. *P<0.05 vs. saline-treated aged mice. #P<0.05 vs. young mice.

CC(C)C[C@H](NC(=O)[C@H](Cc1ccccc1)NC(=O)c1cnccn1)B1OCCN(CCOC(=O)NC(P(=O)(O)O)P(=O)(O)O)CCO1 [BP-Btz1] was tested, and the bone resorption [1] was “inhibits bone resorption”, the bone formation ([1]; compared with Btz alone) was “stimulates formation at doses lower than effective doses of Btz alone” and the myeloma cell growth [2] was “inhibits myeloma cell growth”.

With CC(C)C[C@H](NC(=O)[C@H](Cc1ccccc1)NC(=O)c1cnccn1)B(O)O [Btz, [(1R)-3-methyl-1-[[(2S)-1-oxo-3-phenyl-2[(pyrazinylcarbonyl)amino]propyl]amino]butyl] boronic acid] the fracture repair ([3]; 20-m-old B6 mice, 0.6 mg/kg i.p. day 1, 3, 5) was “promotes fracture repair”, the MPCs ([3]; fractured aged mice) was “increased” and the bone strength ([3]; fractured aged mice) was “increased”. For the same compound, the callus formation ([3]; fractured aged mice) was “increased”.
